Measured values taken from patent US7652063B2, “10-hydroxy-11-dihydroprostaglandin analogs as selective EP4 agonists” (Allergan, Inc., priority 2004, dated 2010).

Key:
HEP3D = molecular target: T1, HEP3D (Homo sapiens, UniProt P43115); test: Radioligand binding, hEP3D; details: competition vs 5 nM [3H]-PGE2
T1 sequence (P43115 1-374 isoform P43115-4): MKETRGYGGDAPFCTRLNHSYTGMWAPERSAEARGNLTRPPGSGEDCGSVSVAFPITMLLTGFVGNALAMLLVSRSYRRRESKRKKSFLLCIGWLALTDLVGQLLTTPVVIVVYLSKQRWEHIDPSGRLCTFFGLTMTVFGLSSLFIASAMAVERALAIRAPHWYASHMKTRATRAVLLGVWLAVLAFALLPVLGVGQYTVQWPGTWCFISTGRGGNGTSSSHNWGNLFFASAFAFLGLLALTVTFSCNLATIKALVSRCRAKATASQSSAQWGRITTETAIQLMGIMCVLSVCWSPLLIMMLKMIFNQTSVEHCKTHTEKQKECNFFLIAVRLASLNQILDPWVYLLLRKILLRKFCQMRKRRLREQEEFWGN

hEP4/Gqs5 = molecular target: T2, hEP4/Gqs5 (Homo sapiens, UniProt P35408); test: FLIPR calcium signal, hEP4; format: cell-based; details: HEK-293(EBNA) cells, read-out: FUNCTIONAL (nm) HEP4
T2 construct: expressed in transfected cells; host or cells: HEK-293(EBNA)
Protocol: (§1) Methods for Flipr™ Studies
(§2) HEK-293(EBNA) cells, stably expressing one type or subtype of recombinant human prostaglandin receptors (prostaglandin receptors expressed: hDP/Gqs5; hEP1; hEP2/Gqs5; hEP3A/Gqi5; hEP4/Gqs5; hFP; hIP; hTP), were cultured in 100 mm culture dishes in high-glucose DMEM medium containing 10% fetal bovine serum, 2 mM 1-glutamine, 250 μg/ml geneticin (G418) and 200 μg/ml hygromycin B as selection markers, and 100 units/ml penicillin G, 100 μg/ml streptomycin and 0.25 μg/ml amphotericin B.
(§3) (b) Calcium Signal Studies on the Flipr™
(§4) Cells were seeded at a density of 5×10^4 cells per well in Biocoat® Poly-D-lysine-coated black-wall, clear-bottom 96-well plates (Becton-Dickinson) and allowed to attach overnight in an incubator at 37° C. Cells were then washed two times with HBSS-HEPES buffer (Hanks Balanced Salt Solution without bicarbonate and phenol red, 20 mM HEPES, pH 7.4) using a Denley Cellwash plate washer (Labsystems). […]
(§5) Cells were excited with an Argon laser at 488 nm, and emission was measured through a 510-570 nm bandwidth emission filter (FLIPR™, Molecular Devices, Sunnyvale, Calif.). […] The peak increase in fluorescence intensity was recorded for each well. […] The peak fluorescence change in each drug-containing well was then expressed relative to the controls. […]

EP4 receptors = molecular target: T3, EP4 receptors (Homo sapiens, UniProt P35408); test: Radioligand binding, hEP4; details: HEK-293 membranes, competition vs 5 nM [3H]-PGE2
T3 construct: expressed in transfected cells; host or cells: HEK-293 (membrane fraction)
Protocol: Cells Stably Expressing EP1, EP2, EP4 and FP Receptors
HEK-293 cells stably expressing the human or feline FP receptor, or EP1, EP2, or EP4 receptors were washed with TME buffer, scraped from the bottom of the flasks, and homogenized for 30 sec using a Brinkman PT 10/35 polytron. TME buffer was added to achieve a final 40 ml volume in the centrifuge tubes (the composition of TME is 100 mM TRIS base, 20 mM MgCl2, […]; 10N HCl is added to achieve a pH of 7.4).
The cell homogenate was centrifuged at 19000 r.p.m. for 20 min at 4° C. using a Beckman Ti-60 rotor. The resultant pellet was resuspended in TME buffer to give a final 1 mg/ml protein concentration, as determined by Biorad assay. Radioligand binding competition assays vs. [^3H-]17 -phenyl PGF2α (5 nM) were performed in a 100 μl volume for 60 min. Binding reactions were started by adding plasma membrane fraction. The reaction was terminated by the addition of 4 ml ice-cold TRIS-HCl buffer and rapid filtration through glass fiber GF/B filters using a Brandel cell harvester. The filters were washed 3 times with ice-cold buffer and oven dried for one hour.
[^3H-] PGE2 (specific activity 180 Ci mmol) was used as the radioligand for EP receptors. [^3H] […] 17-phenyl PGF2α and non-specific binding determined with 10^−5 M of unlabeled PGE2, or 17-phenyl PGF2α, according to receptor subtype studied.

hTP = molecular target: T4, hTP (Homo sapiens, UniProt P21731); test: FLIPR calcium signal, hTP; format: cell-based; details: HEK-293(EBNA) cells, read-out: FUNCTIONAL (nm) HTP
T4 construct: expressed in transfected cells; host or cells: HEK-293(EBNA)
T4 sequence (P21731 1-343): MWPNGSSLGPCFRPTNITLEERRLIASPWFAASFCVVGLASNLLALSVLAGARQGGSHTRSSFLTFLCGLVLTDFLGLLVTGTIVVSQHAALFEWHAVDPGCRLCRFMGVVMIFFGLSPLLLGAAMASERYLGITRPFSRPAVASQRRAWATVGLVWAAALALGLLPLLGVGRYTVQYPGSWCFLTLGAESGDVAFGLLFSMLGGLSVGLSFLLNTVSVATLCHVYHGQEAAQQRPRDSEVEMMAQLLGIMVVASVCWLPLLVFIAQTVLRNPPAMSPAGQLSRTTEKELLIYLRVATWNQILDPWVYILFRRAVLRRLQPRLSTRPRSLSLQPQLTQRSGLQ
Protocol: as §1, §2, §3, §4, §5

T3 sequence (P35408 whole entry): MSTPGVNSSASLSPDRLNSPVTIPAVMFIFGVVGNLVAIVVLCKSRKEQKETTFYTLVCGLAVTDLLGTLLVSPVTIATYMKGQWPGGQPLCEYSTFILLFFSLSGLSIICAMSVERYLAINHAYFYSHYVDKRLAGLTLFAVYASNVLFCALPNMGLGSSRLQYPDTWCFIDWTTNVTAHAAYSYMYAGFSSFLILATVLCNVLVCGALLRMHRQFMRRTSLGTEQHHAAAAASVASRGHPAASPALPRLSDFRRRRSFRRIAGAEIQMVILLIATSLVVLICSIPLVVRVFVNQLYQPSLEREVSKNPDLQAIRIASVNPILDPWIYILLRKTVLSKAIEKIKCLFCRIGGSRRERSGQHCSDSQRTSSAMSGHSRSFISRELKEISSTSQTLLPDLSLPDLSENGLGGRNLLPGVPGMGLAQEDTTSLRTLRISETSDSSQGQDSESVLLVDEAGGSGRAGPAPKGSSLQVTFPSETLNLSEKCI
T2 sequence (P35408 whole entry): as above

IC50 (HEP3D) [nM] | EC50 (hEP4/Gqs5) [nM] | IC50 (EP4 receptors) [nM] | EC50 (hTP) [nM] | Compound
> 10000 | 53 | 170 | – | O=C(O)CCC/C=C\C[C@H]1C(=O)C(O)C[C@@H]1/C=C/C(O)CCc1sc2ccccc2c1Cl (single isomer, unassigned) [Compound 9H]
8700 | 78 | 200 | > 10000 | O=C(O)CCC/C=C\C[C@H]1C(=O)C(O)C[C@@H]1/C=C/C(O)CCc1sc2ccccc2c1Cl (single isomer, unassigned) [Compound 9L]
